Patent publication US20100292185A1, “BETA-LACTAMASE INHIBITORS” (priority 2009, published 2010)
Where a name gives a salt, the structure may show the parent alone. Read-outs that look alike come from different tables or passages of the source.

What was measured:
[1] = test system: K. pneumoniae expressing the Class A carbapenemase KPC-2; assay: microbe, parasite or virus in culture; type: cell-based; settings: in presence of Ceftazidime 8 μg/ml (Examples 1-56)
Outline: (§1)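 CAMHB microdilution, CLSI inoculum. Cells grown 3-5 h + 50 μg/mL ampicillin. Cpd 2-fold serial, 8–0.015 μg/mL final, with β-lactam partner. 37° C, 16-20 h; visual MIC.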

CTX-M15 β-lactamase = target: T1, CTX-M15 β-lactamase (Escherichia coli, UniProt Q9EXV5); assay: β-lactamase enzyme inhibition assay (nitrocefin substrate), CTXM-15; type: biochemical
T1 construct: expressed as native untagged proteins; made in house; host or cells: E. coli BL21(DE3)
Outline: (§2)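 IC50 values reflect a 50% drop in the initial rate of nitrocefin (100 μM final) hydrolysis, monitored at 486 nm. Inhibitor was preincubated with the purified native enzyme for 10 min at 37 °C in PBS pH 7.0.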

[2] = test system: K. pneumoniae expressing the Class A Extended Spectrum Beta-Lactamase (ESBL) CTX-M-15; assay: In vitro antibacterial assay of β-lactamase inhibition (broth microdilution MIC), K. pneumoniae CTX-M-15; type: cell-based; settings: in presence of Ceftazidime 8 μg/ml (Examples 1-56)
Outline: as §1

[3] = test system: E. coli expressing the Class A ESBL SHV-5; assay: In vitro antibacterial assay of β-lactamase inhibition (broth microdilution MIC), E. coli SHV-5; type: cell-based; settings: in presence of Ceftazidime 8 μg/ml (Examples 1-56)
Outline: as §1

KPC-2 β-lactamase = target: T2, KPC-2 β-lactamase (Klebsiella pneumoniae, UniProt Q9F663); assay: β-lactamase enzyme inhibition assay (nitrocefin substrate), KPC-2; type: biochemical
T2 construct: expressed as native untagged proteins; made in house; host or cells: E. coli BL21(DE3)
Outline: as §2

OXA-23 β-lactamase = target: T3, OXA-23 β-lactamase (Acinetobacter baumannii, UniProt Q9L4P2); assay: β-lactamase enzyme inhibition assay (nitrocefin substrate), OXA-23 crude extract; type: biochemical; settings: nitrocefin 100 μM, 37° C., PBS pH 7.0; read-out: OXA-23 IC50
T3 construct: crude β-lactamase extracts were prepared from 20 ml overnight cultures; endogenous in cells; host or cells: Acinetobacter baumannii cells containing OXA-23 (crude freeze-thaw extract)
Outline: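 Crude enzyme came from freeze-thaw extracts of mid-log OXA-23-carrying A. baumannii grown in MH-II broth at 37° C. Inhibitors (100–0.005 μM in PBS pH 7.0) were preincubated with the enzyme for 10 min at 37° C, then 100 μM nitrocefin (final) was added and read kinetically at 486 nm for 10 min. IC50 was taken from initial hydrolysis rates relative to uninhibited controls.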

SHV-5 β-lactamase = target: T4, SHV-5 β-lactamase (Klebsiella pneumoniae, UniProt P0A3M1); assay: β-lactamase enzyme inhibition assay (nitrocefin substrate), SHV-5; type: biochemical
T4 construct: expressed as native untagged proteins; made in house; host or cells: E. coli BL21(DE3)
Outline: as §2

[4] = target: T5, VIM-2 metallo β-lactamase (Pseudomonas aeruginosa, UniProt Q9K2N0); assay: β-lactamase enzyme inhibition assay (nitrocefin substrate), VIM-2; type: biochemical; settings: nitrocefin 100 μM, 37° C., PBS pH 7.0; read-out: VIM-2 IC50
T5 construct: made in house
Outline: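 VIM-2 was expressed untagged in E. coli BL21(DE3) and purified by two Q sepharose anion-exchange runs plus gel filtration to >90% purity. Compounds at 100–0.005 μM in PBS pH 7.0 were preincubated with enzyme for 10 min at 37° C, then nitrocefin was added at 100 μM final. Hydrolysis was followed kinetically at 486 nm for 10 min; IC50 is the concentration halving the initial rate relative to no-inhibitor wells.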

[5] = test system: P. aeruginosa expressing the Class B metallo β-lactamase VIM-2; assay: In vitro antibacterial assay of β-lactamase inhibition (broth microdilution MIC), P. aeruginosa VIM-2; type: cell-based; settings: in presence of Ceftazidime 16 μg/mL (Examples 1-56)
Outline: as §1

[6] = test system: E. cloacae expressing the Class C P99+; assay: In vitro antibacterial assay of β-lactamase inhibition (broth microdilution MIC), E. cloacae P99+; type: cell-based; settings: in presence of Ceftazidime 8 μg/ml (Examples 1-56)
Outline: as §1

p99 AmpC β-lactamase = target: T6, p99 AmpC β-lactamase (Enterobacter cloacae, UniProt P05364); assay: β-lactamase enzyme inhibition assay (nitrocefin substrate), P99 AmpC; type: biochemical
T6 construct: expressed as native untagged proteins; made in house; host or cells: E. coli BL21(DE3)
Outline: as §2

[7] = nitrocefin 100 μM, 37° C., PBS pH 7.0, read-out: P99 AmpC IC50

T1 sequence (Q9EXV5 entry or part of it): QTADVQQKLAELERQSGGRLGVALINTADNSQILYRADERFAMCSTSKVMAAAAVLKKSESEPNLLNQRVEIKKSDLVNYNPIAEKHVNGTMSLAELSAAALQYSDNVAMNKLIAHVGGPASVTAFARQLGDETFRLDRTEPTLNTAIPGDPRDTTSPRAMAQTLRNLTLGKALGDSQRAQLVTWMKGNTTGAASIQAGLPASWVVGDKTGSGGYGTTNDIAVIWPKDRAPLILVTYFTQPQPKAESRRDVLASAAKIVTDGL
T6 sequence (P05364 21-381): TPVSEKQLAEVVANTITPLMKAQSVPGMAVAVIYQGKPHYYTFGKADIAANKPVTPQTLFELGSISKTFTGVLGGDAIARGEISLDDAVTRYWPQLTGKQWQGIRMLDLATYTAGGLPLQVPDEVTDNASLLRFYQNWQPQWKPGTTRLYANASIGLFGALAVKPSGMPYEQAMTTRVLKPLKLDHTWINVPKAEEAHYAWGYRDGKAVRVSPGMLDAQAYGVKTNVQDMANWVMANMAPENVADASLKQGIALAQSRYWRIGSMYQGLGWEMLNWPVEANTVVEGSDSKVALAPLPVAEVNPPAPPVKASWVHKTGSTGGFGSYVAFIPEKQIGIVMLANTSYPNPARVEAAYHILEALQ
T3 sequence (Q9L4P2 18-273): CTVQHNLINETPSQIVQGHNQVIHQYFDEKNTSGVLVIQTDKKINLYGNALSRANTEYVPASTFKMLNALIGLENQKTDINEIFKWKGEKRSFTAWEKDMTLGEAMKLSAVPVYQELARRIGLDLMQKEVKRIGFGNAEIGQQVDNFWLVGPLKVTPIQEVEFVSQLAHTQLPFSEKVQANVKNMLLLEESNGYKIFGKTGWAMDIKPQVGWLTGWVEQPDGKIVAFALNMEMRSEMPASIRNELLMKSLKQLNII
T4 sequence (P0A3M1 22-286): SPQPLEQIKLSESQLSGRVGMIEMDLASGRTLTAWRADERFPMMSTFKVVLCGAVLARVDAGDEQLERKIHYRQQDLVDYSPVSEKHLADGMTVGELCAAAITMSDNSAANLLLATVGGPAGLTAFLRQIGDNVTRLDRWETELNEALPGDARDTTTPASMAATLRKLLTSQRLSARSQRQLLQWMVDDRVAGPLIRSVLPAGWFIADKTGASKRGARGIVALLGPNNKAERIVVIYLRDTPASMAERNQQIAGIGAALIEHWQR
T2 sequence (Q9F663 25-293 limits assumed): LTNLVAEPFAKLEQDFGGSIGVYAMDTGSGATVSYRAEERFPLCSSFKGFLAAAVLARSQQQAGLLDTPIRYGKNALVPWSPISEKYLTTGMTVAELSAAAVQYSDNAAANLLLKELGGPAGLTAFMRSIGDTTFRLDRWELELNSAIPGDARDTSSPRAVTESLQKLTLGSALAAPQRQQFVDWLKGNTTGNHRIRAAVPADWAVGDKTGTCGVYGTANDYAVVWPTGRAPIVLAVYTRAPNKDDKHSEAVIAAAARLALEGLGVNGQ

Row | Compound | MIC of example compound, K. pneumoniae KPC-2 [1] [µg/mL] | IC50 (CTX-M15 β-lactamase) [nM] | MIC of example compound, K. pneumoniae CTX-M-15 [2] [µg/mL] | MIC of example compound, E. coli SHV-5 [3] [µg/mL] | IC50 (KPC-2 β-lactamase) [nM] | IC50 (OXA-23 β-lactamase) [nM] | IC50 (SHV-5 β-lactamase) [nM] | IC50 [4] [nM] | MIC of example compound, P. aeruginosa VIM-2 [5] [µg/mL] | MIC of example compound, E. cloacae P99+ [6] [µg/mL] | IC50 (p99 AmpC β-lactamase; [7]) [nM] | IC50 (p99 AmpC β-lactamase) [nM]
1 | NCCNCc1ccc(CC(=O)N[C@@H](Cc2cccc(C(=O)O)c2O)B(O)O)cc1 [Example 35, (1R)-[2-{4-((2-amino-ethylamino)-methyl)-phenyl}-acetylamino]-(3-carboxy-2hydroxy)benzyl-methylboronic acid formate] | 0.03 | 7 | 0.25 | 0.5 | 17 | 97 | 2 | 196 | >8 | 0.25 | 5 | –
2 | CN(C)Cc1ccc(CC(=O)N[C@@H](Cc2cccc(C(=O)O)c2O)B(O)O)cc1 [Example 36, (1R)-[2-(4-dimethylaminomethyl-phenyl)-acetylamino]-(3-carboxy-2hydroxy)benzyl-methylboronic acid formate] | 0.06 | 4 | 0.12 | 0.5 | 5 | 191 | 2 | 593 | >8 | 0.25 | 2 | –
3 | O=C(Cc1ccc(CN2CCNCC2)cc1)N[C@@H](Cc1cccc(C(=O)O)c1O)B(O)O [Example 37, (1R)-[2-(4-piperazin-1-ylmethyl-phenyl)-acetylamino]-(3-carboxy-2hydroxy)benzyl-methylboronic acid formate] | 0.03 | 7 | 2 | 2 | 9 | 83 | 2 | 785 | >8 | 2 | 2 | –
4 | O=C(Cc1ccc(CN(CCO)CCO)cc1)N[C@@H](Cc1cccc(C(=O)O)c1O)B(O)O [Example 39, (1R)-[2-(4-{[bis-(2-hydroxy-ethyl)-amino]-methyl}-phenyl)-acetylamino]-(3-carboxy-2-hydroxy)benzyl-methylboronic acid formate] | 0.03 | 4 | 0.5 | 0.5 | 26 | 167 | 970 | 469 | >8 | 2 | 12 | –
5 | C[N+]1(Cc2ccc(CC(=O)N[C@@H](Cc3cccc(C(=O)O)c3O)B(O)O)cc2)CCOCC1 [Example 41, 4-(4-{[2-(3-carboxy-2-hydroxy-phenyl)-1-borono-ethylcarbamoyl]-methyl}-benzyl)-4-methyl-morpholin-4-ium formate] | 0.03 | 2 | 0.25 | 0.5 | 10 | 201 | 4 | > 1000 | >8 | 1 | – | 20
6 | Cl.Nc1cncc(C(=O)N[C@@H](Cc2cccc(C(=O)O)c2O)B(O)O)c1 [Example 44, (2R)-3-{[2-(5-amino-pyridine-3-carbonyl)-amino]-2-borono-ethyl}-2-hydroxy-benzoic acid hydrochloride] | 0.015 | 2 | 0.25 | 1 | 30 | 120 | 70 | 690 | >8 | 1 | 1 | –
7 | Nc1cc(CC(=O)N[C@@H](Cc2cccc(C(=O)O)c2O)B(O)O)ccn1 [Example 45, (2R)-3-{2-[(2-amino-pyridin-4-yl-acetyl)-amino]-2-borono-ethyl}-2-hydroxy-benzoic acid formate] | 0.007 | 0.5 | 0.03 | 0.03 | 6 | 113 | 10 | 811 | >8 | 0.06 | – | 2
8 | Br.CC(C)(O/N=C(\C(=O)N[C@@H](Cc1cccc(C(=O)O)c1O)B(O)O)c1csc(N)n1)C(=O)O [Example 48, 3-{2(R)-[2-(2-amino-thiazol-4-yl)-2-(1-carboxy-1-methyl-ethoxyimino)-acetylamino]-2-borono-ethyl}-2-hydroxy-benzoic acid hydrobromide] | 2 | 12 | >8 | >8 | 70 | 670 | 4 | > 1000 | >8 | >8 | 10 | –
9 | Cl.Nc1nc(/C(=N/O)C(=O)N[C@@H](Cc2cccc(C(=O)O)c2O)B(O)O)cs1 [Example 49, 3-{2(R)-[2-(2-amino-thiazol-4-yl)-2(Z)-hydroxyimino-acetylamino]-2-borono-ethyl}-2-hydroxy-benzoic acid hydrochloride] | 0.12 | 11 | 2 | 2 | 34 | 17 | 4 | 590 | >8 | 2 | 2 | –
10 | C/C(=N/O)C(=O)N[C@@H](Cc1cccc(C(=O)O)c1O)B(O)O [Example 54, 3-[2(R)-(2-hydroxyimino-propionylamino)-2-borono-ethyl]-2-hydroxy-benzoic acid] | 0.03 | 5 | 1 | 2 | 10 | 494 | 48 | > 1000 | >8 | 1 | 2 | –
11 | CC/C(=N/O)C(=O)N[C@@H](Cc1cccc(C(=O)O)c1O)B(O)O [Example 55, 3-[2(R)-(2-hydroxyimino-butyrylamino)-2-borono-ethyl]-2-hydroxy-benzoic acid] | 0.06 | 1 | 2 | 2 | 6 | 67 | 120 | > 1000 | >8 | 1 | 0.5 | –
12 | CCC(=O)C(=O)N[C@@H](Cc1cccc(C(=O)O)c1O)B(O)O [Example 56, 3-[2(R)-(2-oxo-butyrylamino)-2-borono-ethyl]-2-hydroxy-benzoic acid] | 0.25 | 11 | 4 | >8 | 24 | 31 | 195 | > 1000 | >8 | 2 | 2 | –
